Values quoted from earlier work, collected in US20050100594A1, “Pharmaceutical formulation containing muscle relaxant and COX-II inhibitor” (priority 2003, published 2005).
Counter-ions that a name gives are not always drawn.

System: skeletal muscle fibers, neuromuscular junction, monosynaptic spinal reflexes
Conditions: animal models

For Clc1ccc2nsnc2c1NC1=NCCN1 [Tizanidine, 5-chloro-4-(2-imidazolin-2-ylamino)-2,1,3-benzothiodiazole hydrochloride], the “effect on monosynaptic spinal reflexes” value is listed as “no major effect” and the “effect on skeletal muscle fibers or the neuromuscular junction” value is listed as “no direct effect”.
